{"source": "paper PMC11931052", "about": "“Efficacy of dispirotripiperazine PDSTP in a golden Syrian hamster model of SARS-CoV-2 infection” (Frontiers in Microbiology, 2025)", "key": {"[1]": {"assay": "Cytotoxicity (MTT test) in Vero E6 cell line", "type": "cell-based, African Green Monkey (Cercopithecus aethiops)", "details": "African green monkey, mean ± SD, three independent experiments", "procedure": "(§1) The microtetrazolium test (MTT test) was used to study the cytotoxicity of the compounds. Vero cells were seeded in 96-well plates at an initial density of 3×10^5 cells/mL, in Gibco Dulbecco’s Modified Eagle Medium supplemented with L-glutamine and 25 mg/L kanamycin, and 10 % fetal bovine serum (FBS) (DMEM, Thermo Fisher Scientific, Waltham, MA USA). Cell cultures were then incubated at 37 °C in a 5 % CO2 atmosphere, in the absence or presence of serial dilutions of test compounds. The test medium used for the cytotoxic assay as well as for the antiviral assay contained 1 % of the appropriate serum. Cell viability was determined after 72 h at 37 °C by the MTT method as previously reported. The cell viability was expressed as a percentage of the control. The 50% cytotoxic concentration (CC50) of each compound was defined as the concentration of the compound that reduced the absorbance (OD570) of the treated cells to 50% when compared with that of untreated cells. CC50 mean values were calculated from at least three independent experiments."}, "[2]": {"assay": "Cytotoxicity (MTT test) in Vero-76 cells", "type": "cell-based, African Green Monkey (Cercopithecus aethiops)", "details": "African green monkey", "procedure": "as §1"}, "[3]": {"tested_on": "SARS-CoV-2 ancestral PV10734 strain", "assay": "Yield reduction assay in Calu-3 cells, SARS-CoV-2 ancestral PV10734 strain", "type": "cell-based", "details": "PDSTP 20 and 4 μM, day 3 post-infection, p < 0.0001"}, "SARS-COV-2 PV10734 [4]": {"tested_on": "SARS-COV-2 PV10734", "assay": "Virucidal activity assay", "details": "20 µM; 4°C and 37°C for 2 hours", "procedure": "PDSTP (20 µM) was incubated with 3×10^5 PFU/mL of SARS-COV-2 PV10734 at either 4 and 37 °C for 2 hours. The mixture of the viral sample without a test compound was used as an untreated control. At the end of the incubation period, samples were serially diluted in media and titers were determined on Vero-76 cells at high dilutions, at which the compound was not active. Virus titers were determined by plaque assay in Vero-76 cells."}, "SARS-COV-2 PV10734 [5]": {"tested_on": "SARS-COV-2 PV10734", "assay": "Penetration assay in Vero cells", "type": "cell-based", "details": "at higher concentrations", "procedure": "A penetration assay was performed with small modifications according to the method reported earlier ([Chang et al., 2012]). A 24-well tissue culture plate was seeded with Vero cells (3 × 10^5 cells/well), which were then incubated overnight at 37°C in a 5% CO2 atmosphere. The cells were pre-chilled on ice for 1 h, and the medium was removed. The cells were infected with 100 PFU of SARS-CoV-2 PV10734 on ice for 2 h. The medium containing the unbound virus was then removed. Various concentrations of PDSTP (100–0.8 μM) in the medium were added, and the cells were incubated at 37°C for 1 h to trigger endocytosis of the virus. The infected cells were then treated with alkaline PBS (pH 11) for 1 min to inactivate viruses that had not penetrated the cells. Acidic PBS (pH 3) was then added to neutralize the mixture. The neutralized medium was removed; the cells were overlaid with methylcellulose in media and then were incubated at 37°C. After the 72-h incubation period, the cells were stained, and the plaques were determined by counting."}, "[6]": {"tested_on": "SARS-CoV-2 B.1.1 GR MM1/2020/Aug-21 clinical isolate", "assay": "Golden Syrian hamster model of SARS-CoV-2-induced pneumonia", "type": "in vivo", "details": "for Body weight: day 0"}, "[7]": {"assay": "Acute toxicity, intravenous administration, rats", "details": "both sexes, rat, in vivo, Rats (M/F)"}, "[8]": {"assay": "Acute toxicity, intravenous administration, mice", "details": "both sexes, mouse, in vivo, Mice (M/F)"}, "[9]": {"assay": "Acute toxicity, intraperitoneal administration, mice", "details": "both sexes, mouse, in vivo, ip, Mice (M/F)"}, "[10]": {"assay": "Acute toxicity, topical application, mice", "type": "in vivo", "details": "for LD50: acute toxicity, topical application"}, "[11]": {"assay": "Acute toxicity, topical application, rats", "type": "in vivo", "details": "for LD50: acute toxicity, topical application"}, "[12]": {"assay": "Acute toxicity, intragastric administration, rats", "type": "in vivo", "details": "maximum dose 5000 mg/kg"}, "[13]": {"assay": "Chronic toxicity, intranasal administration, rabbits", "type": "in vivo", "details": "repeated administration for 14 days, 10-200 mg/kg"}, "[14]": {"tested_on": "bone marrow, liver, kidney and spleen cells", "assay": "DNA damage accounting test (DNA Comet)", "type": "in vivo, F1 hybrids of SWAxC57BL/6 mice", "details": "400 mg/kg and 1000 mg/kg topically", "procedure": "PDSTP doses tested: 400 mg/kg and 1000 mg/kg\nTest subjects: F1 hybrids of SWAxC57BL/6 mice.\nMethod of administration: topically."}, "[15]": {"assay": "Reproductive toxicity: generative function of sexually mature animals", "type": "in vivo, white laboratory rats", "details": "10% solution topically on 5% of body surface area for 25 days", "source_text": "(§2) PDSTP doses tested: 10% solution\n(§3) Test subjects: white laboratory rats of both sexes\nThe drug was applied topically on 5% of body surface area (3x5 cm area) for 25 days."}, "[16]": {"assay": "Reproductive toxicity: embryotoxicity study", "type": "in vivo, white laboratory rats", "details": "10% solution, daily topical application, days 6 to 19 of gestation", "source_text": "as §2, §3\nPregnant rats from 6 to 19 days of gestation received daily topical application of PDSTP on 5% of the body surface area (3x5 cm area)."}, "[17]": {"assay": "Reproductive toxicity: postnatal development of F1 generation offspring", "type": "in vivo, white laboratory rats", "details": "female rats received PDSTP from the 6th day of gestation to delivery", "procedure": "as §2, §3\nDuring the study of postnatal development and fertility of F1 generation offspring born from female rats that received PDSTP from the 6th day of gestation to delivery, the rates of physical development, the rate of maturation of sensory-motor reflexes and emotional-motor behavior, as well as fertility were evaluated in comparison with rats born from intact females."}, "[18]": {"details": "10 mg/kg, severity score 0 to 6"}, "[19]": {"details": "maximum regulated amount applied to the skin"}}, "note": "Several values for one entry are separate records, joined by “and”; a condition that tells them apart may be missing. Identical values can stand only once. Entries after “also recorded” stand apart in the source; their conditions may differ."}
{"smiles": "Cc1nc(N2CC[N+]3(CC2)CC[N+]2(CCNCC2)CC3)c([N+](=O)[O-])c(N2CC[N+]3(CC2)CC[N+]2(CCNCC2)CC3)n1.Cl.Cl.O.O.O.O.O.O.O.O.O.[Cl-].[Cl-].[Cl-].[Cl-]", "note": "[PDSTP, 3,3′-(2-methyl-5-nitropyrimidine-4,6-diyl)bis-3,12-diaza-6,9-diazonia-dispiro[5.2.5.2]hexadecane tetrachloride dihydrochloride nonahydrate]", "values": [{"measurement": "CC50 at 72 h", "setting": "[1]", "value": "183 ± 40.5", "unit": "µM"}, {"measurement": "CC50 at 72 h", "setting": "[2]", "value": "> 100", "unit": "µM"}, {"measurement": "Reduction of viral titer", "setting": "[3]", "value": "~100", "unit": "fold"}, {"measurement": "Virucidal activity (direct impact on viral infectivity)", "setting": "SARS-COV-2 PV10734 [4]", "value": "no direct impact; also recorded: lacks virucidal activity"}, {"measurement": "Viral inhibition, penetration experiment", "setting": "SARS-COV-2 PV10734 [5]", "value": "only modest viral inhibition"}, {"measurement": "Animals with completely reduced SARS-CoV-2-induced lung pathology", "setting": "[6]; 10 mg/kg", "value": "three"}, {"measurement": "Body weight", "setting": "[6]; 10 mg/kg", "value": "100,7±0,3 gram"}, {"measurement": "Animals with lung severity score \"mild\"", "setting": "[6]; [18]", "value": "two"}, {"measurement": "Animals with lung severity score \"none\"", "setting": "[6]; [18]", "value": "three out of six"}, {"measurement": "Animals with completely reduced SARS-CoV-2-induced lung pathology", "setting": "[6]; 20 mg/kg", "value": "two"}, {"measurement": "Body weight", "setting": "[6]; 20 mg/kg", "value": "94,1±0,4 gram"}, {"measurement": "Body weight", "setting": "[6]; 40 mg/kg", "value": "96,7±0,3 gram"}, {"measurement": "Alveolar edema (histopathology)", "setting": "[6]; 10 or 20 mg/kg", "value": "moderate"}, {"measurement": "Reduction in lung viral titer vs negative control", "setting": "[6]; […], not statistically significant", "value": 1.5, "unit": "log10"}, {"measurement": "Reduction of viral RNA copy levels in lung tissue vs vehicle", "setting": "[6]; […], statistically non-significant", "value": 2.2, "unit": "log10"}, {"measurement": "Core body temperature", "setting": "[6]; all animal groups", "value": "within the normal range"}, {"measurement": "Mortality", "setting": "[6]; all animal groups", "value": "None of the animals died"}, {"measurement": "Body weight loss", "setting": "[6]; hamster, in vivo", "value": "no more than 10%"}, {"measurement": "Reduction of viral RNA copy levels in lung tissue vs vehicle", "setting": "[6]; hamster, in vivo", "value": "1.6 log10 and 2.0 log10"}, {"measurement": "Viral RNA copy levels in turbinate tissue", "setting": "[6]; hamster, in vivo", "value": "statistically significantly diminished"}, {"measurement": "LD50", "setting": "[7]", "value": 140, "unit": "mg/kg"}, {"measurement": "LD50", "setting": "[8]", "value": 150, "unit": "mg/kg"}, {"measurement": "LD50", "setting": "[9]", "value": 192, "unit": "mg/kg"}, {"measurement": "LD50", "setting": "[10]", "value": "greater than 31.25 mg/cm^2"}, {"measurement": "Toxicity and local irritant effects on skin", "setting": "[10]; [19]", "value": "No manifestations of toxicity and local irritant effects were observed"}, {"measurement": "LD50", "setting": "[10]; mouse, in vivo, topical or ocular, 2500 mg/kg, read-out: LD50", "value": "> 2500", "unit": "mg/kg"}, {"measurement": "LD50", "setting": "[11]", "value": "greater than 31.25 mg/cm^2"}, {"measurement": "Toxicity and local irritant effects on skin", "setting": "[11]; [19]", "value": "No manifestations of toxicity and local irritant effects were observed"}, {"measurement": "LD50", "setting": "[11]; rat, in vivo, topical or ocular, 2500 mg/kg, read-out: LD50", "value": "> 2500", "unit": "mg/kg"}, {"measurement": "Clinical signs", "setting": "[12]", "value": "piloerection and diarrhea, deterioration of hair coat, decreased motor activity, and decreased body weight"}, {"measurement": "Mortality", "setting": "[12]", "value": "The death of animals was not recorded"}, {"measurement": "Toxic effect on organs and systems", "setting": "[13]", "value": "toxic effect on organs and systems was not revealed"}, {"measurement": "Induction of DNA damage (DNA Comet)", "setting": "[14]", "value": "does not induce DNA damage"}, {"measurement": "Effect on generative function of sexually mature animals", "setting": "[15]", "value": "no pathological effect"}, {"measurement": "Embryotoxic effect", "setting": "[16]", "value": "no adverse embryotoxic effect"}, {"measurement": "Effect on fertility of F1 generation offspring", "setting": "[17]", "value": "No statistically significant effect"}, {"measurement": "Effect on postnatal development of F1 generation offspring", "setting": "[17]", "value": "does not adversely affect the studied parameters"}]}
